Assays:
[1] = biological target: T1, ΔF508-CFTR (Homo sapiens, UniProt P13569, DEL508-508); test: CFTR cell surface levels using HRP-tagged ΔF508-CFTR expressing CFBE cells, intrinsic corrector capacity; format: cell-based; conditions: HRP-tagged ΔF508-CFTR CFBE41o- cells, compounds alone (intrinsic corrector capacity), 20 hours at 33° C.; for % Activation: positive control 3 μM corrector; for EC50: read-out: EC50
T1 construct: host or cells: CFBE41o-, doxycycline-inducible
How it was run: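 Here the cells express ΔF508-CFTR with horseradish peroxidase inserted in extracellular loop 4, so only rescued channel at the surface gives luminescent signal. Compounds act on their own, 20 h at the reduced temperature of 33 °C; values are percent activity relative to DMSO and a 3 μM corrector.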

[2] = biological target: T1, ΔF508-CFTR; test: CFTR cell surface levels using HRP-tagged ΔF508-CFTR expressing CFBE cells, in the presence of a co-corrector; format: cell-based; conditions: HRP-tagged ΔF508-CFTR expressing CFBE cells, in the presence of 3 μM co-corrector; for EC50: read-out: EC50
How it was run: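 Cells were seeded with 0.5 μg/mL doxycycline and held 68 h at 37 °C. Test compounds plus 3 μM co-corrector (final 0.1% DMSO) were then added for 20 h at 33 °C. Washed cells received HRP substrate, and luminescence was normalized between DMSO and 3 μM co-corrector controls.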

T1 sequence (P13569 with tags, fused parts or gaps DEL508-508): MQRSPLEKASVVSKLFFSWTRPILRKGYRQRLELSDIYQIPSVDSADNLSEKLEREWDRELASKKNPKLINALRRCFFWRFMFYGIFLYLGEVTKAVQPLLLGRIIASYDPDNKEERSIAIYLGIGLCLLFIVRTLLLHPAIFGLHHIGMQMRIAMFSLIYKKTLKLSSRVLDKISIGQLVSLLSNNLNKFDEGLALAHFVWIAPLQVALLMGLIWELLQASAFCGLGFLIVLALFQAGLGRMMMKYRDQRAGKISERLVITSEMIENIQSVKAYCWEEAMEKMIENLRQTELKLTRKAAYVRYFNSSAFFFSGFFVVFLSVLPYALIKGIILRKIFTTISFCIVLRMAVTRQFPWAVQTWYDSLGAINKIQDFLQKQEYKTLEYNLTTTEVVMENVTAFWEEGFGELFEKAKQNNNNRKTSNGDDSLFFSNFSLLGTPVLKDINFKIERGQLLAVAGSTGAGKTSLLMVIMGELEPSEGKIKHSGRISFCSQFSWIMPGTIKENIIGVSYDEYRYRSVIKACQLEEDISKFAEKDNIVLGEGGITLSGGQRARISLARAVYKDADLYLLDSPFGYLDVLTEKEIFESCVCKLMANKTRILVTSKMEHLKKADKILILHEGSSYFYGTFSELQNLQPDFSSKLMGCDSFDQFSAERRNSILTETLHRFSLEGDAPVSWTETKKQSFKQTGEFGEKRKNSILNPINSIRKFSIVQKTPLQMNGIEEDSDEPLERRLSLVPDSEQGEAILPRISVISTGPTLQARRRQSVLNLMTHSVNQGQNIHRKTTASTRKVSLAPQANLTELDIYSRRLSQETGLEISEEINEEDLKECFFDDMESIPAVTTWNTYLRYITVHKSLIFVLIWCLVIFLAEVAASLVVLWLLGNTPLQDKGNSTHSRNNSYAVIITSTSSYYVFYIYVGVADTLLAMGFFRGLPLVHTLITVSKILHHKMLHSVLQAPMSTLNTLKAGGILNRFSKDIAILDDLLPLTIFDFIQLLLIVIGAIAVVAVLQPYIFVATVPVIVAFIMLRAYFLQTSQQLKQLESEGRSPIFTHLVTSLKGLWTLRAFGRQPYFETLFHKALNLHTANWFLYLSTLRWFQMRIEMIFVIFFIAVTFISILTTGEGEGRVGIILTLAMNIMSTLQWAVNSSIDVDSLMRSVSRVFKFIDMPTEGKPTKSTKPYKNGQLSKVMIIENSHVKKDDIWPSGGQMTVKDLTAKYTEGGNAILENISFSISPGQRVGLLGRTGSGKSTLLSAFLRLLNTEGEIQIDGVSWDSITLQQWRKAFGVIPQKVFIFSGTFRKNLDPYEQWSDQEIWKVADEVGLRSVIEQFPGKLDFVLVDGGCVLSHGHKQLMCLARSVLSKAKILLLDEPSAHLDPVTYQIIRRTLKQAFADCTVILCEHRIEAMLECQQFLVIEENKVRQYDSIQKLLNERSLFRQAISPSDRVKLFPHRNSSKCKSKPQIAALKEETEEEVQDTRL

| SMILES | % Activation [1] [%] | EC50 [1] [nM] | % Activation [2] [%] | EC50 [2] [nM] |
| --- | --- | --- | --- | --- |
| COC(=O)N1CC(c2nn(C3CCCCC3)c3nc(C(=O)O)cc(-c4cnc(N(C)C)nc4)c23)C1 [compound 166, 1-cyclohexyl-4-[2-(dimethylamino)pyrimidin-5-yl]-3-[1-(methoxycarbonyl)azetidin-3-yl]-1H-pyrazolo[3,4-b]pyridine-6-carboxylic acid] | 68.01 | 3340 | 241.5 | 3260 |
| CC(C)c1nn(-c2cccc(N3CC(F)C3)c2)c2nc(C(=O)O)cc(-c3ccc(N4CCOCC4)cc3)c12 [compound 167, 1-[3-(3-fluoroazetidin-1-yl)phenyl]-4-[4-(morpholin-4-yl)phenyl]-3-(propan-2-yl)-1H-pyrazolo[3,4-b]pyridine-6-carboxylic acid] | 301.1 | 596 | 568.2 | 535 |
| Cc1nn(-c2ccccc2)c2nc(C(=O)O)cc(-c3ccc(N(C)C4CCOCC4)nc3)c12 [compound 168, 3-methyl-4-{6-[methyl(oxan-4-yl)amino]pyridin-3-yl}-1-phenyl-1H-pyrazolo[3,4-b]pyridine-6-carboxylic acid] | 190.23 | 1290 | 379.07 | 697 |
| COCCN(C)c1ccc(-c2cc(C(=O)O)nc3c2c(C(C)C)nn3C2CCCCC2)cn1 [compound 170, 1-cyclohexyl-4-{6-[(2-methoxyethyl)(methyl)amino]pyridin-3-yl}-3-(propan-2-yl)-1H-pyrazolo[3,4-b]pyridine-6-carboxylic acid] | 208.6 | 738 | 482.4 | 504 |
| CC(=O)Nc1ccc(-c2cc(C(=O)O)nc3c2c(C(C)C)nn3C2CCCCC2)cc1 [compound 171, 4-(4-acetamidophenyl)-1-cyclohexyl-3-(propan-2-yl)-1H-pyrazolo[3,4-b]pyridine-6-carboxylic acid] | 199.67 | 1190 | 450.73 | 1070 |
| COCCN(C)c1cccc(-n2nc(C(C)C)c3c(-c4ccc(N5CCOCC5)cc4)cc(C(=O)O)nc32)c1 [compound 172, 1-{3-[(2-methoxyethyl)(methyl)amino]phenyl}-4[4-(morpholin-4-yl)phenyl]-3-(propan-2-yl)-1H-pyrazolo[3,4-b]pyridine-6-carboxylic acid] | 339.33 | 615 | 513.1 | 480 |
| Cc1cccc(-n2nc(C(C)C)c3c(N4CCCC4)cc(C(=O)O)nc32)c1 [compound 173, 1-(3-methylphenyl)-3-(propan-2-yl)-4-(pyrrolidin-1-yl)-1H-pyrazolo[3,4-b]pyridine-6-carboxylic acid] | 182.82 | 2950 | 380.52 | 2530 |
| Cc1cccc(-n2nc(C(C)C)c3c(N4CC(F)C4)cc(C(=O)O)nc32)c1 [compound 174, 4-(3-fluoroazetidin-1-yl)-1-(3-methylphenyl)-3-(propan-2-yl)-1H-pyrazolo[3,4-b]pyridine-6-carboxylic acid] | 90.21 | 3240 | 260.12 | 2540 |
| Cc1cccc(-n2nc(C(C)C)c3c(-c4ccc(N5CCC(C#N)CC5)nc4)cc(C(=O)O)nc32)c1 [compound 175, 4-[6-(4-cyanopiperidin-1-yl)pyridin-3-yl]-1-(3-methylphenyl)-3-(propan-2-yl)-1H-pyrazolo[3,4-b]pyridine-6-carboxylic acid] | 321.67 | 809 | 522.6 | 532 |
| CC(C)c1nn(-c2cccc(N(C)C)c2)c2nc(C(=O)O)cc(-c3ccc(N4CCC(C#N)CC4)cc3)c12 [compound 176] | 382.28 | 528 | 619.28 | 448 |
| CC(C)c1nn(-c2cccc(N(C)C)c2)c2nc(C(=O)O)cc(-c3ccc(N4CCC(C#N)CC4)nc3)c12 [compound 177] | 364.43 | 701 | 606.47 | 689 |
| CC(C)c1nn(-c2cccc(N3CCOCC3)c2)c2nc(C(=O)O)cc(-c3ccc(N4CCC(C#N)CC4)nc3)c12 [compound 178] | 415 | 628 | 591 | 458 |
| COCCN(C)c1ccc(-c2cc(C(=O)O)nc3c2c(C(C)C)nn3-c2cccc(N3CCOCC3)c2)cn1 [compound 179] | 329.25 | 2820 | 548 | 978 |
| CC(C)c1nn(C2CCCCC2)c2nc(C(=O)O)cc(-c3ccc(N4CCC(C#N)CC4)nc3)c12 [compound 180, 4-[6-(4-cyanopiperidin-1-yl)pyridin-3-yl]-1-cyclohexyl-3-(propan-2-yl)-1H-pyrazolo[3,4-b]pyridine-6-carboxylic acid] | 249.55 | 972 | 524.85 | 687 |
| CC(C)c1nn(C2CCCCC2)c2nc(C(=O)O)cc(-c3ccc(N4CCC(F)(F)C4)nc3)c12 [compound 181, 1-cyclohexyl-4-[6-(3,3-difluoropyrrolidin-1-yl)pyridin-3-yl]-3-(propan-2-yl)-1H-pyrazolo[3,4-b]pyridine-6-carboxylic acid] | 149.2 | 1220 | 397.95 | 1060 |
| CN(c1ccc(-c2cc(C(=O)O)nc3c2c(C2CCC2)nn3-c2ccccc2)cn1)C1CCOCC1 [compound 183, 3-cyclobutyl-4-{6-[methyl(oxan-4-yl)amino]pyridin-3-yl}-1-phenyl-1H-pyrazolo[3,4-b]pyridine-6-carboxylic acid] | 252.9 | 528 | 469.58 | 460 |
| COCCN(C)c1ccc(-c2cc(C(=O)O)nc3c2c(C(C)C)nn3C2CCCCC2)cc1 [compound 184, 1-cyclohexyl-4-{4-[(2-methoxyethyl)(methyl)amino]phenyl}-3-(propan-2-yl)-1H-pyrazolo[3,4-b]pyridine-6-carboxylic acid] | 170.25 | 942 | 377.4 | 677 |
| CC(C)c1nn(C2CCCCC2)c2nc(C(=O)O)cc(-c3ccc(N4CCC(C#N)CC4)cc3)c12 [compound 185, 4-[4-(4-cyanopiperidin-1-yl)phenyl]-1-cyclohexyl-3-(propan-2-yl)-1H-pyrazolo[3,4-b]pyridine-6-carboxylic acid] | 237.8 | 1110 | 478.6 | 520 |
| O=C(O)c1cc(-c2ccc(N3CCOCC3)cc2)c2c(C3CCCO3)nn(-c3ccccc3)c2n1 (stereo not drawn) [compound 186, 4-[4-(morpholin-4-yl)phenyl]-3-(oxolan-2-yl)-1-phenyl-1H-pyrazolo[3,4-b]pyridine-6-carboxylic acid] | 168.7 | 1870 | 378.4 | 1260 |
| CC(C)c1nn(-c2cccc(N3CCOCC3)c2)c2nc(C(=O)O)cc(-c3ccc(N(C)C4CCOCC4)nc3)c12 [compound 187, 4-{6-[methyl(oxan-4-yl)amino]pyridin-3-yl}-1-[3-(morpholin-4-yl)phenyl]-3-(propan-2-yl)-1H-pyrazolo[3,4-b]pyridine-6-carboxylic acid] | 367.4 | 674 | 522 | 565 |
| COCCN(C)c1ccc(-c2cc(C(=O)O)nc3c2c(C(C)C)nn3-c2cccc(N3CCOCC3)c2)cc1 [compound 188, 4-{4-[(2-methoxyethyl)(methyl)amino]phenyl}-1[3-(morpholin-4-yl)phenyl]-3-(propan-2-yl)-1H-pyrazolo[3,4-b]pyridine-6-carboxylic acid] | 282.4 | 636 | 432.9 | 499 |
| CC(C)c1nn(-c2cccc(N(C)C)c2)c2nc(C(=O)O)cc(-c3ccc(N(C)C4CCOCC4)nc3)c12 [compound 189, 1-[3-(dimethylamino)phenyl]-4-{6-[methyl(oxan-4-yl)amino]pyridin-3-yl}-3-(propan-2-yl)-1H-pyrazolo[3,4-b]pyridine-6-carboxylic acid] | 385.02 | 514 | 590.78 | 292 |
| COC1CCCN(c2cc(C(=O)O)nc3c2c(C(C)C)nn3-c2cccc(C)c2)C1 (stereo not drawn) [compound 190, 4-(3-methoxypiperidin-1-yl)-1-(3-methylphenyl)-3-(propan-2-yl)-1H-pyrazolo[3,4-b]pyridine-6-carboxylic acid] | 136.12 | 929 | 301.85 | 634 |
| CN(C)c1ccc(-c2cc(C(=O)O)nc3c2c(C2CC2)nn3C2CCCCC2)cn1 [compound 193, 1-cyclohexyl-3-cyclopropyl-4-[6-(dimethylamino)pyridin-3-yl]-1H-pyrazolo[3,4-b]pyridine-6-carboxylic acid] | 194.98 | 633 | 402.32 | 425 |

Source: US9796711B2, “Substituted pyrazolo[3,4-b]pyridin-6-carboxylic acids and method of use” (AbbVie S.àr.l., priority 2015, dated 2017)
